From patent US20180042827A1, “METHOD OF PROTECTING SKIN FROM ULTRAVIOLET RADIATION” (FIC BIOTECH INC., priority 2016, published 2018)
Entries after “also recorded” stand apart in the source; their conditions may differ.

Key:
Format in all cases: cell-based, human
[1] = test system: HFF-1 cells (G6PD deficient skin fibroblast); assay: Intracellular ROS detection (DCF-DA fluorescence) after UVA irradiation; settings: 200 μM added prior to UVA irradiation (25, 50 and 100 KJ/cm^2)
Method: (§1) When cells were seeded in culture dish for overnight incubation, 200 μM of compound (I-1) was added to the cells for 2 hours before UVA irradiation.
(§2) Reactive oxygen species (ROS) fluorescent dye: when 10 μM of 2′,7′-dichlorodihydrofluorescindiacetate (DCF-DA) enters the cells, DCF trapped is oxidized by the ROS and emits fluorescent light (excitation light: 488 nm, scattered light: 525 nm).
(§3) HFF-3 and HFF-1 cells were cultivated and irradiated with various dosages of UVA (25, 50 and 100 KJ/cm^2). The culture medium was then replaced with new medium and treated with 10 μM of DCF-DA probe for 30 minutes at 37° C. in the dark. Cells were detached by trypsinization, collected by centrifugation and resuspended in PBS. The intracellular ROS, as reflected by the DCF green fluorescence, were then observed using laser scanning confocal microscope.

HFF-3 cells [2] = assay: as above; settings: 200 μM added prior to UVA irradiation (25, 50 and 100 KJ/cm^2)
Method: as §1, §2, §3

[3] = test system: HFF1 cells (G6PD deficient skin fibroblast); assay: Intracellular lipid peroxidation (C11-BODIPY 581/591 fluorescence) after UVA irradiation; settings: pretreated, 50 KJ/m^2 UVA, versus only UVA-treated cells
Method: as §1
(§4) When the ROS attacks the C11-BODIPY^581/591 on the cell membrane, it will emit fluorescent light (excitation light: 488 nm, scattered light: 510-665 nm).
(§5) After treating 10 μM C11-BODIPY^581/591 for 30 minutes at 37° C., the cells were washed with HEPES buffer (4-(2-hydroxyerhyl)-piperazine-1-erhanesulfonic acid, HEPES) and were observed by using the laser scanning confocal microscope.

HFF3 cells = assay: as above; settings: pretreated, 50 KJ/m^2 UVA, versus only UVA-treated cells
Method: as §1, §4, §5

[4] = test system: HFF-1 cells (G6PD deficient skin fibroblast); assay: Intracellular glutathione (GSH) depletion (CMF-DA fluorescence) after UVA irradiation; settings: 200 μM added prior to UVA irradiation (25, 50 and 100 KJ/cm^2)
Method: as §1
(§6) Glutathione (GSH) fluorescent dye: 10 μM of 5-chloromethyl fluorescein diacetate (CMF-DA). When CMF-DA enters the cells, the trapped CMF reacts with the GSH to form a fluorescent compound which to emit fluorescent light (excitation light: 492 nm, scattered light: 517 nm).
as §3, with “[…] CMF-DA” for “10 μM of DCF-DA”, “GSH contents,” for “ROS,”, “the” for “the DCF”, “fluorescence intensity of CMF-GSH,” for “fluorescence,”

HFF-3 cells [5] = assay: as above; settings: 200 μM added prior to UVA irradiation (25, 50 and 100 KJ/cm^2)
Method: as §1, §6
as §3, with “[…] CMF-DA” for “10 μM of DCF-DA”, “GSH contents,” for “ROS,”, “the” for “the DCF”, “fluorescence intensity of CMF-GSH,” for “fluorescence,”

[6] = test system: HFF-1 cells (G6PD deficient skin fibroblast); assay: Calcium detection of cytoplasm and mitochondria (Fluo-4 / Rhod-2) after UVA irradiation; settings: 200 μM added prior to UVA (50 KJ/cm^2)
Method: as §1
(§7) Calcium mobilization detection dye: 1.5 μM of RHOD-2/AM (rhod-2) is a cell-permeable fluorescent probe for measuring calcium (Ca^2+) in mitochondria (excitation light: 543 nm, scattered light: 581 nm), and 2 μM of FLUO-4/AM (fluo-4) is a cell-permeable fluorescent probe for measuring calcium (Ca^2+) in cytoplasm (excitation light: 488 nm, scattered light: 516 nm).
(§8) HFF-3 and HFF-1 cells were cultivated and irradiated with UVA (50KJ/cm^2). The culture medium was then replaced with new medium and treated with 2 μM Flou-4 and 1.5 μM of Rhod-2 (for the detection of mitochondrial calcium) for 30 minutes at 37° C. in the dark. Rhod-2 is a cationic rhodamine-based indicator probe and it can accumulate preferentially in potential-driven uptake in mitochondria. The resting mitochondrial calcium concentration is generally in the range of 100-150 nM. At this level of calcium, the brownish red fluorescence of Rhod-2 is minimal. However, when large excess of calcium ions are uptaken by the mitochondria, concentration-dependent increases in the intensities of Rhod-2 fluorescence will occur. The phenomenon is a testimony of mitochondrial calcium overload.

HFF-3 cells [7] = assay: as above; settings: 200 μM added prior to UVA (50 KJ/cm^2)
Method: as §1, §7, §8

[8] = test system: HFF-1 cells (G6PD deficient skin fibroblast); assay: TUNEL analysis of apoptotic cell death after UVA irradiation; settings: 200 μM added prior to UVA (50 KJ/cm^2), UVA alone ca 80%
Method: as §1
(§9) Apoptotic cell death was assayed by using an Apo-BrdU in situ DNA fragmentation assay kit. This kit measures the fragmented DNA of apoptotic cells by catalytically incorporating fluorescein-12-dUTP at 3′-OH DNA ends using the terminal deoxynucleotidyl transferase enzyme. The fluorescein-12-dUTP-labeled DNA can then be visualized by confocal scanning microscope and quantified by using software.

HFF-3 cells [9] = assay: as above; settings: 200 μM added prior to UVA (50 KJ/cm^2), UVA alone ca 40%
Method: as §1, §9

## COC(=O)c1cc(O)c(O)c(O)c1 [compound (I-1), methyl gallate]
[1]
  production of intracellular ROS (DCF fluorescence): almost completely suppressed; also recorded: nearly complete suppression of ROS production
HFF-3 cells [2]
  production of intracellular ROS (DCF fluorescence): almost completely suppressed
[3]
  intracellular lipid peroxidation (green fluorescent intensity of C11-BODIPY 581/591): weaker than that of the only UVA-treated cells; also recorded: significant decline of green fluorescence
HFF3 cells
  intracellular lipid peroxidation (green fluorescent intensity of C11-BODIPY 581/591): weaker than that of the only UVA-treated cells; also recorded: significant decline of green fluorescence
[4]
  intracellular GSH depletion (green fluorescence of CMF-GSH): nearly complete protection of GSH depletion; also recorded: nearly complete recovery of green fluorescence
HFF-3 cells [5]
  intracellular GSH depletion (green fluorescence of CMF-GSH): nearly complete protection of GSH depletion; also recorded: nearly complete recovery of green fluorescence
[6]
  mitochondrial calcium overload (brownish red fluorescence of Rhod-2): drastic decrease in brownish red fluorescence intensity; also recorded: could effectively be suppressed
HFF-3 cells [7]
  mitochondrial calcium overload (brownish red fluorescence of Rhod-2): can prevent calcium overload in mitochondria; also recorded: could effectively be suppressed
[8]
  TUNEL-positive cell population: 18%
HFF-3 cells [9]
  TUNEL-positive cell population: 8%
